Where “and” joins values, the source holds several entries; their conditions need not be identical. Equal entries are not always repeated. Each block holds one substance with its values, some of them ahead of it. Ends that are not written are not given here. * marks the point of attachment. Biotin = O=C1N[C@H]2[C@H](CS[C@H]2CCCCC(=O)*)N1
Assays:
human IgG1 = human IgG1 (Homo sapiens, UniProt P01857); assay: action of human and bacterial proteases on human IgG1 (Table 1); type: biochemical; details: for Major Product: None = no detectable cleavage in 24 hours; for Cleaved Site: human IgG1 heavy chain, EU numbering
Method: Table 1 is a summary of the findings concerning the action of human proteases and two bacterial proteases on human IgG1. The term “Coagulation proteinases” refers to serum coagulation cascade proteins including; FXIIa, FIXa, FXa, thrombin and activated protein C; plasmin was plasminogen co-incubated with plasminogen activators; tPA, streptokinase and staphylokinase; “plasminogen activators alone” are without plasminogen; and the MMPs were recombinant proteinases obtained either as the active form or the pro-enzyme as detailed in the Materials; and “None” denotes no detectable cleavage in 24 hours. Except where indicated all enzymes where human. The residue designations are for the EU numbering system for the IgG1 antibody heavy chain where the 25 residues of SEQ ID NO: 1 corresponds to residues 219 through 243 of the complete mature heavy chain.

[1] = molecular target: Fab fragment of the 2095-2 antibody; details: 25° C; for kd / ka: 1:1 (Langmuir) model; for ka: global fit of three Fab surface densities; for Kd: calculated KD
Method: The specificity of binding was further examined using a Fab fragment of the 2095-2 antibody using a surface plasmon resonance platform (Biacore). Briefly, the Fab was immobilized to a CM5 sensor chip in a Biacore 2000 at three different surface densities (8500, 1650, and 350 RU) using standard NHS/EDC coupling. The running buffer contained 10 mM HEPES pH 7.4, 150 mM NaCl, and 0.01% Tween-20. Data were collected at 25° C.
Three N-terminally biotinylated peptides were tested for binding of to the immobilized Fab: WT, representing the expected sequence of a peptide fragment from a human IgG1 cleavage site after cleavage by the Streptococcus pyogenes IdeS protease; E233A, representing a variant of having a single alanine substitution at the amino acid residue four positions upstream of the C-terminus; and L234A, a variant having a single alanine substitution at the amino acid residue three positions upstream from the C-terminus. The peptides were modified by substituting serine for cysteine to make them compatible with the coupling chemistry and preserve the monomeric structure.
Peptides Wild type and E233A were tested in a 3-fold dilution series using 588 nM and 2.9 uM as the highest concentration, respectively. Peptide L234A was tested at 14.7 uM as the highest concentration in a 2-fold dilution series. Each peptide concentration series was tested in triplicate over the three different density Fab surfaces. The association and dissociation were monitored for 1 minute. Surfaces were regenerated with a 12 second injection of 1/500 dilution of phosphoric acid.

[2] = test system: cleavage site specific analogueue peptide; assay: ELISA titers to the peptide analogueue after immunization of rabbits; type: in vivo, rabbit; details: reciprocal of the dilution at which a signal was detectable, individual immunized rabbits
Source text: The procedure described in Example 3 verified that test subject rabbits have had previously developed immune titers to Staph. aureus antigens which would provide for natural bacterial targeting antibodies. To determine if rabbits would generated a sufficiently specific and robust cleavage site specific antibody response after vaccination, with cleavage site peptides, to protect against a bacterial challenge, the following experiment was perfomed where rabbits were immunized with a GluV8-cleavage site peptide analogueue (residues 7-15 of SEQ ID NO: 1, […]) conjugated to the immunogen KLH.
Following immunization, the reactivity of rabbit serum to the peptide analogueue was tested by ELISA. […] Cleavage site specific antibodies were also detected in the wiffle ball fluids of all six rabbits, with the same animal (657) having a low level of detectible antibodies.

S. aureus (ATCC 29213) = assay: wiffle ball (tissue cage) S. aureus infection model in rabbits; type: in vivo
Source text: In order to test the capacity of cleavage site specific antibodies to rescue cleaved IgGs in vivo, a model for bacterial infection employing a “tissue cage” (Fernandez J A, et. al. (1997) Antimicrob. Agents Chemother. 43(3):667-671) was adopted. In this system, a wiffle ball is surgically implanted subcutaneously in the dorsal cervical area. The model allows the infectious agents to be localized within an easily accessible fluid compartment, a tissue pouch, and has been used to assess the efficacy of antibiotics against bacteria.
In the final phase of the study, the immunized and non-immunized rabbits were inoculated with 6.2 log10 colony forming units (CFUs) of S. aureus (ATCC 29213) directly into the wiffle-ball compartments.
The bacterial counts and test subject viability were monitored over the course of two weeks for bacterial counts and survival. The data shown in FIG. 9 indicate that during the first week of the study, the average bacterial counts for control animals were several logs higher than cleavage site specific vaccinated animals. For example, on day 2 the control had 7.2 log10 CFU/ml wiffle ball fluid while the immunized group had 5.2 log10 CFU/ml wiffle ball fluid.

platelets = assay: circulating platelet counts in dogs; type: in vivo, dog
Method: First, the c7E3 antibody antigen binding and platelet depletion parameters were established in dogs.
c7E3 IgG and c7E3 IgG single-cleaved by IdeS protease were also compared in vivo. Three groups of 5 animals received either saline control, intact c7E3 IgG (0.05 mg/kg) or c7E3 single-cleaved IgG (0.05 mg/kg). Platelet counts were monitored at baseline and at 2, 24, 48, 72 and 96 hours post-administration. Limiting the study to 5 days minimized the likelihood of anti-c7E3 immune responses that might confound the interpretation of the results. The results are presented in FIG. 3 as the mean platelet count±SD for each animal group at each time point. The extent of the error bars connotes the normal variability of platelet counts in different animals (for example, the predose counts for the 5 animals in the single-cleaved IgG treatment group were 175,000, 355,000, 305,000, 276,000 and 334,000 per μL, respectively).
To be consistent with the prior experiments, the variants of c7E3 were all administered at the 0.05 mg/kg dose. The unique aspect of the experiment (groups 6 and 7) involves the infusion of the first targeting mAb followed by the cleavage site specific mAb after a 10 minute delay. […] Platelet counts were monitored over a 96-hour period. […]

[3] = test system: platelet surface IIb/III3 receptors; assay: platelet aggregation assay; type: cell-based; details: 5 μM ADP; compared with intact c7E3 IgG
Method: c7E3 inhibits platelet aggregation by binding to platelet surface IIb/III3 receptors—thereby blocking the ability of fibrinogen to bind to the receptors on activated platelets and to clump them together. The respective inhibitory profiles of intact and single-cleaved c7E3 IgG were tested in a platelet aggregation assay. Platelet aggregation is measured as an increase of light transmission through a platelet suspension after activation with a physiological agonist. The inhibition is compared to control aggregation to 5 μM adenosine diphosphate (ADP). The percent inhibition was calculated as: control aggregation—test aggregation X 100%, divided by control aggregation.

Sequence of human IgG1 (P01857 1-330 isoform P01857-1, other chains not shown): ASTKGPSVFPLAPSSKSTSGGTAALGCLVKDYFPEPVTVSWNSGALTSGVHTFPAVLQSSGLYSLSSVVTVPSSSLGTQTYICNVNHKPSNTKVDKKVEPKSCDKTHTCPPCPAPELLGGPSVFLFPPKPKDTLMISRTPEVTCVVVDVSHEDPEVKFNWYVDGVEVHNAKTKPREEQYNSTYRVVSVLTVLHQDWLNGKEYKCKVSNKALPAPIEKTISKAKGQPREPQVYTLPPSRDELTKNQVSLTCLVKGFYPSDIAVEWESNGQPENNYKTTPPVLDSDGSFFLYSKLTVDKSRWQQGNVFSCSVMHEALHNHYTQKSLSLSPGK

Major Product (human IgG1): None
Substance: Interstitial collagenase (MMP-1): recombinant human MMP

Major Product (human IgG1): Fab + Fc
Cleaved Site (human IgG1): Thr^223-
Substance: Neutrophil elastase: human serine endopeptidase

Substance: Biotin-TSPPSPAPALLG [E233A]
kd [1]: 0.1070 ± 0.04 s⁻¹
ka [1]: 7.29 ± 0.03 M-1s-1 × 10^−5
Kd [1]: 0.147 µM

Substance: Glutamyl endopeptidase I (Glu V8 protease): glutamyl endopeptidase I from Staph. aureus
Major Product (human IgG1): F(ab′)2 +
Cleaved Site (human IgG1): Glu^233-

Substance: Biotin-TSPPSPAPEALG [L234A]
kd [1]: 1.03 ± 0.01 s⁻¹
ka [1]: 1.24 ± 0.01 M-1s-1 × 10^−5
Kd [1]: 8.34 µM

Major Product (human IgG1): None
Substance: Collagenase 2 (MMP-8): recombinant human MMP

Major Product (human IgG1): F(ab′)2 +
Cleaved Site (human IgG1): Pro^232-
Substance: Stromelysin (MMP-3): recombinant human MMP

Substance: C-T-S-P-P-S-P-S-P-A-P-E (CTSPPSPSPAPE; also: conjugated to KLH) [Glutamyl endopeptidase cleavage site analogueue peptide conjugated to keyhole limpet hemocyanin, used to vaccinate rabbits]
Serum (titer) [2]: 640 and 12,800 and 51,000 and 820,000 and 205,000
Wiffle ball (titer) ([2]; wiffle ball fluid): 3,200 and 12,800 (3×) and 51,000 and 320
average bacterial counts (S. aureus (ATCC 29213); day 2, immunized rabbits inoculated with 6.2 log10 CFUs): 5.2 log10 CFU/ml wiffle ball fluid
animals viable (S. aureus (ATCC 29213); end of the two week study): 100%

Major Product (human IgG1): None
Substance: Cathepsin D: human protease

Major Product (human IgG1): F(ab′)2 +
Cleaved Site (human IgG1): Glu^233-
Substance: Cathepsin G: human serine endopeptidase

Substance: Biotin-TSPPSPAPELLG [Wt]
kd [1]: 0.00443 ± 0.02 s⁻¹
ka [1]: 5.22 ± 0.04 M-1s-1 × 10^−5
Kd [1]: 0.0085 µM

Substance: c7E3 single-cleaved IgG: c7E3 IgG single-cleaved in the lower hinge by IdeS protease
effect on platelet numbers (platelets; 0.05 mg/kg, groups of 5 animals, monitored to 96 hours): essentially without effect
effect on platelet numbers (platelets; FIG. 12 study, groups of 3 animals, c7E3 variants 0.05 mg/kg, 2095-2 0.5 mg/kg): without effect
binding/inhibition of platelet aggregation after single lower hinge cleavage by IdeS [3]: no loss of binding/inhibition

Major Product (human IgG1): F(ab′)2 +
Cleaved Site (human IgG1): Leu^234-
Substance: Matrilysin (MMP-7): recombinant human MMP

Source: patent publication US20120269834A1, “IMMUNOGLOBULIN CLEAVAGE FRAGMENT VACCINE COMPOSITIONS” (priority 2010, published 2012)
